IC50 data for 45 molecules are collected here from ChEMBL document CHEMBL4823314, “Design, synthesis and biological evaluation of novel acridine and quinoline derivatives as tubulin polymerization inhibitors with anticancer activities” (Bioorg Med Chem, 2021).

One test concerns MCF7. In words: cells. The conditions noted are these: Homo sapiens, MCF7, 48 h.
The subject of another test is B16-F10. In words: Antiproliferative activity against mouse B16-F10 cells assessed as reduction in cell viability measured after 48 hrs by MTT assay. The test is classed as functional, cell-based. The conditions noted are these: B16-F10, 48 h.
Another test has as its system HepG2. In words: Antiproliferative activity against human HepG2 cells assessed as reduction in cell viability measured after 48 hrs by MTT assay. The test is classed as functional, cell-based. The settings on record: HepG2, 48 h. A general note: Tetrazolium assays rely on reduction of a dye to a coloured formazan, in cell work by metabolically active cells.
The subject of a further test is HeLa. In words: cells. The conditions noted are these: Homo sapiens, 48 h.
Test [1] in a line: Inhibition of pig brain tubulin polymerization by spectrophotometric method. The format is tissue-based, Sus scrofa.

Description for HeLa: Antiproliferative activity against human HeLa cells assessed as reduction in cell viability measured after 48 hrs by MTT assay
Description for MCF7: Antiproliferative activity against human MCF7 cells assessed as reduction in cell viability measured after 48 hrs by MTT assay

Regarding `COc1ccc(Nc2c3ccccc3nc3ccccc23)cc1`, the IC50 (in general, the midpoint of a concentration-inhibition curve) in the test with MCF7 was 1.23 µM; in the test with B16-F10, 2.14 µM; in the test on HepG2 it was 1.47 µM; in the test with HeLa it was 3.67 µM.
The matching figures for `CCCCN(c1ccc(OC)cc1)c1ccnc(C)c1`: 22.5 µM, 20.2 µM, 18.7 µM and 19.7 µM.
The matching figures for `CCCCN(c1ccnc(C)c1)c1cc(OC)c(OC)c(OC)c1`: 17.3 µM, 18.4 µM, 15.6 µM and 16.8 µM.
`CCCCN(c1cc(OC)c(OC)c(OC)c1)c1ccnc2cc(Cl)ccc12`: the IC50 turned out to be 16.4 µM in the test on MCF7, 14.7 µM with B16-F10, 15.4 µM in the test with HepG2 and 17.3 µM in the test with HeLa.
The like results for `CN(c1ccc(C#N)cc1)c1cccc2ncccc12` were, in that order, 30.9 µM, 25.2 µM, 28.7 µM and 36.5 µM.
The matching figures for `COc1cc(N(C)c2ccnc(C)n2)cc(OC)c1OC`: 14.5 µM, 15.4 µM, 12.7 µM and 16.2 µM.
The matching figures for `COc1cc(N(C)c2cccc3ncccc23)cc(OC)c1OC`: 6.36 µM, 6.58 µM, 5.24 µM and 8.27 µM.
In the case of `CCCCN(c1ccccc1)c1cccc2ncccc12`, the 50% inhibitory concentration (IC50) in the test with MCF7 amounted to 20 µM; with B16-F10, 27.1 µM; with HepG2 it was 22.1 µM; with HeLa, 29.9 µM.
For the molecule `COc1ccc(N(C)c2ccnc3cc(Cl)ccc23)cc1`, the IC50 in the test with MCF7 was 4.42 µM; in the test with B16-F10, 1.38 µM; with HepG2, 0.939 µM; in the test on HeLa, 2.67 µM.
The like results for `COc1ccc(N(C)c2c3ccccc3nc3ccccc23)cc1` were, in that order, 5.17 µM, 5.78 µM, 4.18 µM and 6.49 µM.
As for `CCCCN(c1cc(OC)c(OC)c(OC)c1)c1cccc2ncccc12`, the IC50 with MCF7 came to 8.33 µM; in the test with B16-F10, 7.65 µM; in the test on HepG2, 7 µM; in the test with HeLa, 9.29 µM.
The matching figures for `COc1ccc(Nc2ccnc(C)n2)cc1`: 12.5 µM, 10.6 µM, 6.78 µM and 13.6 µM.
The like results for `COc1ccc(Nc2ccnc(C)c2)cc1` were, in that order, 21.1 µM, 16.6 µM, 14.8 µM and 21 µM.
As to `CCCCN(c1ccc(OC)cc1)c1cccc2ncccc12`, the IC50 in the test with MCF7 worked out at 3.78 µM; in the test with B16-F10, 2.43 µM; in the test on HepG2, 1.37 µM; with HeLa, 3.06 µM.
Consider `COc1cc(N(C)c2ccnc(C)c2)cc(OC)c1OC`, for which the IC50 in the test with MCF7 was 15.3 µM; in the test with B16-F10, 22.5 µM; in the test with HepG2 it was 18.6 µM; in the test with HeLa it was 14.1 µM.
The matching figures for `CCCCN(c1ccc(OC)cc1)c1c2ccc(Cl)cc2nc2ccc(OC)cc12`: 9.06 µM, 9.04 µM, 8.16 µM and 9.82 µM.
Regarding `CCCCN(c1ccc(F)c(Cl)c1)c1cccc2ncccc12`, the IC50 with MCF7 is 33.8 µM; in the test on B16-F10 it was 29.5 µM; in the test on HepG2 it was 26.7 µM; in the test on HeLa, 32.1 µM.
For the molecule `COc1ccc(/C=C\c2cc(OC)c(OC)c(OC)c2)cc1O` [COMBRETASTATIN A4], the IC50 in the test on MCF7 amounted to 0.019 µM; in test [1], 1.84 µM; in the test with B16-F10 it was 0.014 µM; with HeLa it was 0.023 µM.
Consider `Fc1ccc(Nc2cccc3ncccc23)cc1Cl`, for which the IC50 with MCF7 worked out at 36.4 µM; in the test on B16-F10, 38.1 µM; in the test on HepG2 it was 32.1 µM; in the test with HeLa, 44.9 µM.
The matching figures for `COc1cc(Nc2cccc3ncccc23)cc(OC)c1OC`: 1.14 µM, 1.28 µM, 0.783 µM and 2.8 µM.
The matching figures for `COc1ccc(Nc2cccc3ncccc23)cc1`: 4.64 µM, 4.57 µM, 3.79 µM and 4.16 µM.
The like results for `COc1ccc(Nc2ccnc3cc(Cl)ccc23)cc1` were, in that order, 9.69 µM, 8.32 µM, 6.98 µM and 8.79 µM.
Regarding `N#Cc1ccc(Nc2cccc3ncccc23)cc1`, the IC50 with MCF7 turned out to be 35.6 µM; in the test with B16-F10, 40.4 µM; in the test on HepG2, 37.5 µM; with HeLa, 43.2 µM.
The matching figures for `CCCCN(c1ccc(OC)cc1)c1ccnc2cc(Cl)ccc12`: 7.12 µM, 6.84 µM, 5.69 µM and 6.47 µM.
The matching figures for `CN(c1ccccc1)c1cccc2ncccc12`: 20.4 µM, 18.1 µM, 16 µM and 24 µM.
The like results for `COc1ccc(Nc2c3ccc(Cl)cc3nc3ccc(OC)cc23)cc1` were, in that order, 5.17 µM, 4.98 µM, 3.19 µM and 7.2 µM.
In the case of `COc1ccc2nc3cc(Cl)ccc3c(N(C)c3cc(OC)c(OC)c(OC)c3)c2c1`, the IC50 with MCF7 was 3.13 µM; in the test on B16-F10, 3.79 µM; with HepG2 it was 2.83 µM; in the test on HeLa, 4.01 µM.
The matching figures for `COc1cc(Nc2c3ccccc3nc3ccccc23)cc(OC)c1OC`: 5.67 µM, 6.54 µM, 4.46 µM and 6.8 µM.
Regarding `CCCCN(c1cc(OC)c(OC)c(OC)c1)c1c2ccccc2nc2ccccc12`, the IC50 was 4.44 µM in the test with MCF7, 4.68 µM in the test on B16-F10, 3.55 µM in the test on HepG2 and 5.3 µM with HeLa.
For `COc1ccc(N(C)c2ccnc(C)c2)cc1`, the IC50 in the test on MCF7 stood at 13.3 µM; in the test on B16-F10, 15.4 µM; in the test with HepG2, 15.5 µM; in the test on HeLa it was 18.7 µM.
The like results for `c1ccc(Nc2cccc3ncccc23)cc1` were, in that order, 26.4 µM, 28.6 µM, 26.8 µM and 30.7 µM.
Regarding `CCCCN(c1ccc(OC)cc1)c1ccnc(C)n1`, the IC50 is 9.38 µM in the test with MCF7, 9.06 µM with B16-F10, 6.71 µM in the test on HepG2 and 8.61 µM in the test on HeLa.
The matching figures for `COc1cc(N(C)c2ccnc3cc(Cl)ccc23)cc(OC)c1OC`: 14.3 µM, 13.3 µM, 11.4 µM and 16.1 µM.
The like results for `CCCCN(c1ccc(C#N)cc1)c1cccc2ncccc12` were, in that order, 29.7 µM, 33.1 µM, 30.1 µM and 42.9 µM.
The matching figures for `COc1cc(Nc2ccnc3cc(Cl)ccc23)cc(OC)c1OC`: 9.27 µM, 7.22 µM, 6.82 µM and 8.65 µM.
With `CCCCN(c1cc(OC)c(OC)c(OC)c1)c1c2ccc(Cl)cc2nc2ccc(OC)cc12`, the IC50 with MCF7 stood at 4.86 µM; with B16-F10, 4.66 µM; in the test on HepG2 it was 3.5 µM; in the test on HeLa it was 6.08 µM.
The like results for `CCCCN(c1cc(OC)c(OC)c(OC)c1)c1ccnc(C)n1` were, in that order, 20.2 µM, 19.3 µM, 16.8 µM and 17 µM.
The matching figures for `CN(c1ccc(F)c(Cl)c1)c1cccc2ncccc12`: 23.6 µM, 25.5 µM, 20.1 µM and 30.9 µM.
For `COc1ccc(N(C)c2c3ccc(Cl)cc3nc3ccc(OC)cc23)cc1`, the IC50 turned out to be 7.77 µM in the test with MCF7, 8.05 µM in the test with B16-F10, 7.24 µM in the test with HepG2 and 8.95 µM in the test on HeLa.
The matching figures for `COc1ccc(N(C)c2ccnc(C)n2)cc1`: 5.32 µM, 4.06 µM, 1.4 µM and 6.12 µM.
The like results for `COc1cc(N(C)c2c3ccccc3nc3ccccc23)cc(OC)c1OC` were, in that order, 2.03 µM, 1.39 µM, 1.81 µM and 2.7 µM.
The like results for `COc1cc(Nc2ccnc(C)n2)cc(OC)c1OC` were, in that order, 11.5 µM, 10 µM, 8.18 µM and 10.6 µM.
`COc1cc(Nc2ccnc(C)c2)cc(OC)c1OC`: the IC50 with MCF7 stood at 13.3 µM; in the test on B16-F10 it was 18.9 µM; with HepG2 it was 11.4 µM; in the test on HeLa it was 16.1 µM.
The matching figures for `CCCCN(c1ccc(OC)cc1)c1c2ccccc2nc2ccccc12`: 7.11 µM, 6.45 µM, 3.44 µM and 8.65 µM.
For `COc1ccc2nc3cc(Cl)ccc3c(Nc3cc(OC)c(OC)c(OC)c3)c2c1`, the IC50 was 6.6 µM in the test on MCF7, 6.97 µM in the test on B16-F10, 5.23 µM in the test with HepG2 and 8.07 µM in the test with HeLa.
